Assay results from US9029092B2, “Solution phase homogeneous assays” (Beckman Coulter, Inc., priority 2009, dated 2015).
Where “and” joins values, the source holds several entries; their conditions need not be identical. Equal entries are not always repeated.

Columns and labels:
[1] = system: PSA; experiment: Assay of PSA with dextran scaffold chemiluminescent-labeled sbp with and without SSIA; assay type: biochemical, human; settings: ascorbic acid as SSIA
Experimental: In this example, one member of a specific binding pair of monoclonal antibodies for PSA is conjugated to a dextran molecule coupled with AK1, as described in Example 10 below, except the antibody is thiolated and covalently-linked to AK11-labeled and maleimide-activated dextran. A second monoclonal PSA antibody was conjugated to HRP, as described above and provided in an aqueous solution at either 0.5 μg/ml, 0.1 μg/ml or 0.03 μg/ml as indicated in the tables below. The assays were performed by placing 25 μl of sample in each of two reaction vessels. To the sample in the first reaction vessel, 25 μl of Ab1 solution, 25 μl of water, 25 μl of Ab2 solution was added and incubated for 15 minutes. […] Each sample was analyzed according to the above assay method in triplicate. […] A ratio of signal to noise (S/S0) was calculated at each concentration value. […] Samples of known concentration were prepared as described previously. Each sample was analyzed according to the above method in triplicate.

[2] = system: TnI; experiment: Assays utilizing various SSIA in TnI assay; assay type: biochemical; settings: for Signal/Noise S1/S0: calibrator S1; for Signal/Noise S2/S0: calibrator S2; for Signal/Noise S3/S0: calibrator S3; for Signal/Noise S4/S0: calibrator S4; for Signal/Noise S5/S0: calibrator S5; for Signal/Noise S6/S0: calibrator S6
Experimental: In a reaction tube, 400 uL of TnI M6 antibody-HRP conjugate at 0.5 ug/mL in buffered aqueous solution at pH. 8.0 (100 mM Tris, 150 mM NaCl, 0.1 mM EDTA, 0.2% Tween-20 and 1% BSA), 400 uL of AK1˜Dex70/31˜Streptavidin (fraction 1) 2:1 SA/Ab at 2 ug/mL Ab also in buffered aqueous solution at pH 8.0, and 400 uL of calibrator standard solution containing the TnI analyte at a known concentration. One tube was prepared for each calibrator concentration. […] Next, 25 uL of each antioxidant as a concentrated solution of 2 mM, 1 mM or 0.5 mM was pipetted into the plate wells using a repeater pipette. The plates were rotated for 10 seconds to mix and incubated between 5 to 33 minutes. Detection was performed with a SpectraMax L injection plate luminometer.

[3] = system: biotinylated HRP; experiment: Model system for selection of SSIA (AK1/streptavidin BSA microparticles + biotinylated HRP); assay type: biochemical, horseradish; settings: SSIA 100 μM final
Procedure, shortened: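 Streptavidin/AK1/biotin-BSA M280 microparticles mixed with candidate SSIA (100 μM final) and Btn-HRP at 0, 1, 10, 100 or 250 ng/mL, with unlabeled HRP to 500 ng/mL total HRP. After 30 min at 37° C, trigger solution was added and light intensity recorded on a modified DxI analyzer.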

[4] = SSIA final concentration 125 uM
[5] = SSIA final concentration 250 uM
[6] = SSIA final concentration 500 uM

O=C1O[C@H]([C@@H](O)CO)C(O)=C1O [Ascorbic Acid]
RLU, w/SSIA ([1]; PSA 0.0 ng/mL): 1756 RLU | S/S0, w/SSIA ([1]; PSA 0.0 ng/mL): 1.0 | RLU, w/SSIA ([1]; PSA 0.4 ng/mL): 4393 RLU | S/S0, w/SSIA ([1]; PSA 0.4 ng/mL): 2.5 | RLU, w/SSIA ([1]; PSA 7.0 ng/mL): 57119 RLU | S/S0, w/SSIA ([1]; PSA 7.0 ng/mL): 32.5 | RLU, w/SSIA ([1]; PSA 101.6 ng/mL): 604024 RLU | S/S0, w/SSIA ([1]; PSA 101.6 ng/mL): 344.0 | Signal/Noise S1/S0 [2, 4]: 1.4 | Signal/Noise S1/S0 [2, 5]: 1.6 | Signal/Noise S1/S0 [2, 6]: 1.3 | Signal/Noise S2/S0 [2, 4]: 2.7 | Signal/Noise S2/S0 [2, 5]: 2.6 | Signal/Noise S2/S0 [2, 6]: 1.8 | Signal/Noise S3/S0 [2, 4]: 8.5 | Signal/Noise S3/S0 [2, 5]: 8.2 | Signal/Noise S3/S0 [2, 6]: 5.1 | Signal/Noise S4/S0 [2, 4]: 32.2 | Signal/Noise S4/S0 [2, 5]: 28.7 | Signal/Noise S4/S0 [2, 6]: 15.4 | Signal/Noise S5/S0 [2, 4]: 228.0 | Signal/Noise S5/S0 [2, 5]: 188.5 | Signal/Noise S5/S0 [2, 6]: 87.5 | Signal/Noise S6/S0 [2, 4]: 2196.3 | Signal/Noise S6/S0 [2, 5]: 1511.1 | Signal/Noise S6/S0 [2, 6]: 562.4 | light intensity, BTN-HRP0 ([3]; Btn-HRP 0 ng/mL, total HRP 500 ng/mL): 97 and 151 | S1/S0 ([3]; Btn-HRP 1 ng/mL vs 0): 7.8 and 6.6 | light intensity, BTN-HRP1 ([3]; Btn-HRP 1 ng/mL, total HRP 500 ng/mL): 757 and 995 | S2/S0 ([3]; Btn-HRP 10 ng/mL vs 0): 171.6 and 216.2 | light intensity, BTN-HRP10 ([3]; Btn-HRP 10 ng/mL, total HRP 500 ng/mL): 16,641 and 32,568 | S3/S0 ([3]; Btn-HRP 100 ng/mL vs 0): 38064.9 and 30222.2 | light intensity, BTN-HRP100 ([3]; Btn-HRP 100 ng/mL, total HRP 500 ng/mL): 3,692,291 and 4,553,473 | S4/S0 ([3]; Btn-HRP 250 ng/mL vs 0): 62228.3 and 59176.1 | light intensity, BTN-HRP250 ([3]; Btn-HRP 250 ng/mL, total HRP 500 ng/mL): 6,036,145 and 8,915,869 | effectiveness as SSIA in the model system [3]: demonstrating utility as SSIA
